The results in this text go back to US12281107B2, “SET8 lysine methyltransferase inhibitor and preparation method and application thereof” (HAINAN YILING MEDICAL INDUSTRY & DEVELOPMENT Co., Ltd., priority 2019, dated 2025).

Experiment [1] concerns liver cancer cell line HepG2. The experiment is described as follows: CCK-8 cell proliferation inhibition test, HepG2. The class given is cell-based. As for the experimental part: (§1) 1. Experimental Method: […] cell line SH-SY5Y, colorectal cancer cell line SW480 and liver cancer cell line HepG2 are respectively cultured in an RPMI-1640 medium containing 10% calf serum at 37° C. in a 5% CO2 incubator. The […] method is adopted for cell proliferation inhibition test, and the main operation is as follows: taking the tumor cell line in the logarithmic phase, digesting with 0.25% trypsin, preparing an RPMI-1640 medium containing 10% newborn calf serum into a cell suspension of 6×10^4 cells/mL, and inoculating the cell suspension into a 96-well plate, with 100 μL per well. Culturing at 37° C. and 5% CO2 saturated humidity for 12 h. After adherence, absorbing the culture supernatants in the wells, and adding the sample solution prepared from the RPMI-1640 medium containing 1% calf serum to each well so that the final concentrations of the samples are 100 μM, 30 μM, 10 μM, 3 μM, 1 μM, and 0.3 μM respectively. With 3 wells in parallel for each concentration, continuing culturing for 48 h, then adding 10 μL of CCK-8 solution (Dalian Meilun, MA0218) to each well, and continuing incubating at 37° C. and 5% CO2 for 4 h. Selecting 470 nm on the enzyme-linked immunosorbent assay apparatus to measure the light absorption value of each well, and setting a blank group (only adding a culture solution containing cells) and a control group (using the culture solution to replace drugs) to calculate the cell proliferation inhibition rate. Inhibition rate (%)=(1−average OD value of 3 wells in experimental group/average OD value of 3 wells in control group)×100%. With the inhibition rate as an ordinate, a regression curve is drawn to calculate the IC50 value of the sample. Graphpad prism 7.0 software are adopted for data processing and statistical analysis by.

For experiment [2], the system named is glioma cell line SH-SY5Y. The experiment is described as follows: CCK-8 cell proliferation inhibition test, SH-SY5Y. The class given is cell-based. The note with it: Homo sapiens, 48 h. As for the experimental part:
as §1

Experiment [3] concerns colorectal cancer cell line SW480. The experiment is described as follows: CCK-8 cell proliferation inhibition test, SW480. The class given is cell-based. The procedure:
as §1

Experiment [4] has as its target T1, lysine methyltransferase SET8 (Homo sapiens, UniProt Q9NQR1).
T1 construct: purchased Cayman Company
T1 sequence (Q9NQR1 1-393): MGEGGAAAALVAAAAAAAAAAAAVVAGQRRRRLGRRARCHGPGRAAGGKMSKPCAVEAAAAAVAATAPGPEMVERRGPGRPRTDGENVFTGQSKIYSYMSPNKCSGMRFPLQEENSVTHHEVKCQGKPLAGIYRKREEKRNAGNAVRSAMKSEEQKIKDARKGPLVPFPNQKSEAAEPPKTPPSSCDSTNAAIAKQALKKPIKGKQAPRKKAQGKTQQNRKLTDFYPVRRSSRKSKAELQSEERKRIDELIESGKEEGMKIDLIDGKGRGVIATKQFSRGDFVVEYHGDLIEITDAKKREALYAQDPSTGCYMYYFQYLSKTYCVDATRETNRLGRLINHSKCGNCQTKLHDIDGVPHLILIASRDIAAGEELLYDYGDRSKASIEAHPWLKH
The experiment is described as follows: SET8 methyltransferase inhibitor screening assay kit (Cayman), fluorescence. The class given is biochemical. The note with it: incubation at 37° C. for 10 min; inhibitor concentration not given. The procedure:
The steps of activity detection are completely based on the SET8 methyltransferase inhibitor screening assay kit of Cayman Company. In short, reagents in the kit are added to the 96-well plate to be tested according to the Table A below.
Then 10 μL of SET8 albumen protein is added to each well, and the reaction begins. After incubation at 37° C. for 10 min, the fluorescence intensity (A) value is measured at the excitation wavelength of 535 nm and the […] of 590 nm. the inhibition rate of the compound is calculated according to the following formula: Inhibition rate %=(Anormal−Asample)/)Normal*100%, and the inhibition rate of each inhibitor on lysine methyltransferase is shown in Table 1.

`COc1ccc(Cc2nc(C3CNCCO3)n(C3CCCCC3)n2)cc1` (stereo not drawn) [Compound 3, 2-(1-cyclohexyl-3-(4-methoxybenzyl)-1H-1,2,4-triazol-5-yl)morpholine]: the “IC % for 100 μM” value in experiment [1] (HepG2, 100 μM, 48 h) is 48.8%; in experiment [3] (SW480, 100 μM, 48 h), 73.2%. In addition, the “tumor cell proliferation inhibitory activity (in words)” value in experiment [1] (HepG2, summary of Table 2) is reported as “good tumor cell proliferation inhibitory activity”; in experiment [3] (SW480, summary of Table 2), “good tumor cell proliferation inhibitory activity”. Moreover, the half-maximal inhibitory concentration (IC50) in experiment [1] (Homo sapiens, HepG2, 48 h, CCK-8) was determined as 19.2 µM; in experiment [2] (CCK-8) it was 22.6 µM; in experiment [3] (Homo sapiens, SW480, 48 h, CCK-8), 18.3 µM. The inhibition at 100 µM in experiment [2] (100 μM, read-out: IC % for 100 μM) worked out at 76.5%. Also, in experiment [4], the “Inhibition Rate (%)” value is 70.0%.
